Experimental data reported in US9556437B2, “FAT1 gene in cancer and inflammation” (DEPARTMENT OF BIOTECHNOLOGY (DBT), priority 2012, dated 2017).
Entries after “also recorded” stand apart in the source; their conditions may differ.

What was measured:
c-jun = c-jun mRNA level by q-PCR; assay type: cell-based, human; conditions: U87MGsiFAT1 vs U87MGsiControl
Method: Cell Culture and siRNA Transfection: The human glioma cell lines U87MG, U373, A172, T98G, GOS3 and SW1088 were obtained from ATCC; Rockville, Md., cultured in DMEM (Sigma-Aldrich, Switzerland) supplemented with 10% (v/v) FCS (Sigma-Aldrich), 3.7 g/l sodium bicarbonate (Sigma-Aldrich), Ciprofloxacin 10 μg/ml and 5% CO2 at 37° C. For transfection, 2×10^5 cells were seeded per 25 cm^2 flask. After 24 hrs, cells were transfected with FAT1 siRNA and universal medium GC control siRNA (Invitrogen) according to the manufacturer's protocol with a final concentration of 20 nM of siRNA using LIPOFECTAMINE 2000 (Invitrogen) and Opti-Mem media (Invitrogen). After 4 hrs of siRNA transfection, the media was supplemented with DMEM containing 2×FCS. The ability of each siRNA to mediate knockdown of FAT1 mRNA was confirmed using qRT-PCR. Photomicrographs of the cells were taken using an inverted phase contrast microscope (Nikon TMS, Phase contrast microscope, Japan). For simultaneous knockdown of FAT1 and PDCD4, siRNA from Dharmacon were used. Transfection was performed as earlier with 50 nM of FAT1 siRNA along with 50 nM of PDCD4 siRNA or 50 nM of control siRNA.
cDNA Synthesis and Quantitative PCR: Total RNA was isolated from cells at appropriate time point (vide supra) using TRIzol reagent (Invitrogen), quantified using a Nanodrop ND-1000 spectrophotometer. […]

ECM protease activity = assay: Gelatin zymography; assay type: cell-based, human; conditions: conditioned media of U87MG cells, 72 hrs, vs siControl
Method: Gelatin Zymography: U87MG cells (2.5×10^5 cells/flask) were plated into 25 cm^2 flask. Transfection was performed on day 1 and after 72 hrs, the conditioned medium was collected, clarified by centrifugation, concentrated by Centricon YM-30 (10:1 concentration; Millipore, Billerica, Mass., USA), and separated in non-reducing polyacrylamide gels containing 0.1% (wt/vol) gelatin. The gel was incubated with 1× Zymogram renaturing buffer for 30 min at room temperature, 1× Zymogram developing buffer for 30 min at room temperature, and 1× Zymogram developing buffer at 37° C. for overnight. The gel was then stained for protein with 0.25% (w/v) Coomassie Blue R-250 and then destained with Coomassie R-250 destaining solution (Methanol:Acetic acid:Water (50:10:40). Proteolysis was detected as a white zone in a dark field.

siFAT1: FAT1 specific siRNA (Invitrogen), FAT Stealth RNAi siRNA-I (HSS103567), used for further experiments (sense CCCAACACACCUGUGGUCAUGGUAA; antisense UUACCAUGACCACAGGUGUGUUGGG; Stealth modification, chemistry not fully specified; listed as Homo sapiens)
c-jun mRNA level (c-jun): decreased by two folds; also recorded: reduced by two folds | ECM protease activity (ECM protease activity): decreased; also recorded: reduced protease activity
